{"source": "patent US20140128431A1", "about": "“PHARMACEUTICAL COMPOSITION WITH IMPROVED BIOAVAILABILITY, SAFETY AND TOLERABILITY” (priority 2012, published 2014)", "key": {"[1]": {"assay": "Aqueous solubility of crystalline Compound A at physiological pHs", "assay_type": "physicochemical", "conditions": "aqueous media at physiological pHs (pH 1.5-8.0), aqueous buffer, crystalline form", "text": "(§1) The compound is moderately permeable as determined with the Caco-2 assay value of 4.5×10-6 cm/s. Targeted high doses/frequency of dosing for this series of compounds, led to the categorization of Compound A as BCS class IV compound (low solubility/low permeability)."}, "[2]": {"assay": "Caco-2 assay (permeability)", "assay_type": "in vitro ADME", "conditions": "human", "text": "as §1"}}}
{"smiles": "COc1ccc(-c2cc(C(C)(C)C)c(OC)c3cc(-c4ccc(NS(C)(=O)=O)cc4)cnc23)c(=O)[nH]1", "note": "[Compound A, N-{4-[6-tert-Butyl-5-methoxy-8-(6-methoxy-2-oxo-1,2-dihydro-pyridin-3-yl)-quinolin-3-yl]-phenyl}-methanesulfonamide]", "values": [{"measurement": "solubility", "setting": "[1]", "result": "< 1", "unit": "µg/mL"}, {"measurement": "Papp", "setting": "[2]", "result": 4.5, "unit": "×10⁻⁶ cm/s"}]}
